Patent publication US4619925A, “3-Propenyl cephalosporin derivatives” (priority 1985, dated 1986)
Values after ≈ are worked out from the molar mass of the structure shown. Read-outs that look alike come from different tables or passages of the source.

Experiments:
E. coli Juhl [1] = experiment: Protective dose for mice infected with lethal inoculum; type: in vivo; details: 50% survival after five days
From the text: (§1) The data in Table 2 are results of protective doses (PD50) for mice infected with a lethal inoculum of bacteria. Two different bacteria were employed in the studies, one a Gram-positive organism (S. aureus Smith) and the other a Gram-negative organism (E. coli Juhl). The PD50 is that dose which, when administered to a group of injected mice, results in 50% survival after five days. Normally untreated infected mice die within three days following injection of the lethal inoculum.

S. aureus Smith [2] = experiment: as above; type: in vivo; details: po, 50% survival after five days
From the text: as §1

K. pneumoniae A20346 = experiment: MIC, agar dilution technique (Mueller-Hinton Agar); type: cell-based; details: Klebsiella pneumoniae, A20346, read-out: Minimum Inhibitory Concentration
From the text: (§2) Each of these groups of organisms is constituted of five individual strains of microorganism. The Gp-Ia organisms are Gram-positive staphylococci which are sensitive to penicillin. The Gp-Ib organisms are Gram-positive staphylococci which are resistant to penicillin and produce penicillinase. The Gn-Ia organisms are Gram-negative bacteria which are sensitive to ampicillin and cephalothin. The Gn-Ib organisms are Gram-negative bacteria which are resistant to ampicillin and cephalothin.

E. coli A9660 = experiment: MIC, agar dilution technique (Mueller-Hinton Agar); type: cell-based; details: Escherichia coli, A9660, read-out: Minimum Inhibitory Concentration
From the text: as §2

E coli RGN-823 = experiment: MIC, agar dilution technique (Mueller-Hinton Agar); type: cell-based; details: Escherichia coli, RGN823, Gn-Ib, ampicillin and cephalothin resistant, read-out: Minimum Inhibitory Concentration
From the text: as §2

K. pneumoniae D11 = experiment: MIC, agar dilution technique (Mueller-Hinton Agar); type: cell-based; details: Klebsiella pneumoniae, D11, read-out: Minimum Inhibitory Concentration
From the text: as §2

E. coli A20341-1 = experiment: MIC, agar dilution technique (Mueller-Hinton Agar); type: cell-based; details: Escherichia coli, A203411, read-out: Minimum Inhibitory Concentration
From the text: as §2

S. aureus A9602 = experiment: MIC, agar dilution technique (Mueller-Hinton Agar); type: cell-based; details: Staphylococcus aureus, A9602, read-out: Minimum Inhibitory Concentration
From the text: as §2

E. coli Juhl [3] = experiment: MIC, agar dilution technique (Mueller-Hinton Agar); type: cell-based; details: Escherichia coli, read-out: Minimum Inhibitory Concentration
From the text: as §2

E. coli A15148 = experiment: MIC, agar dilution technique (Mueller-Hinton Agar); type: cell-based; details: Escherichia coli, A15148, read-out: Minimum Inhibitory Concentration
From the text: as §2

S. aureus Russell = experiment: MIC, agar dilution technique (Mueller-Hinton Agar); type: cell-based; details: Staphylococcus aureus, read-out: Minimum Inhibitory Concentration
From the text: as §2

S. aureus A9497 = experiment: MIC, agar dilution technique (Mueller-Hinton Agar); type: cell-based; details: Staphylococcus aureus, Gp-Ia, penicillin sensitive, read-out: Minimum Inhibitory Concentration
From the text: as §2

S. aureus BX-1633-2 = experiment: MIC, agar dilution technique (Mueller-Hinton Agar); type: cell-based; details: Staphylococcus aureus, BX16332, read-out: Minimum Inhibitory Concentration
From the text: as §2

S. aureus Terajima = experiment: MIC, agar dilution technique (Mueller-Hinton Agar); type: cell-based; details: Staphylococcus aureus, Gp-Ia, penicillin sensitive, read-out: Minimum Inhibitory Concentration
From the text: as §2

S. aureus Smith [4] = experiment: MIC, agar dilution technique (Mueller-Hinton Agar); type: cell-based; details: Staphylococcus aureus, Gp-Ia, penicillin sensitive, read-out: Minimum Inhibitory Concentration
From the text: as §2

S. aureus No. 193 = experiment: MIC, agar dilution technique (Mueller-Hinton Agar); type: cell-based; details: Staphylococcus aureus, Gp-Ib, penicillin resistant, read-out: Minimum Inhibitory Concentration
From the text: as §2

S. aureus A9534 = experiment: MIC, agar dilution technique (Mueller-Hinton Agar); type: cell-based; details: Staphylococcus aureus, Gp-Ia, penicillin sensitive, read-out: Minimum Inhibitory Concentration
From the text: as §2

S. aureus A15092 = experiment: MIC, agar dilution technique (Mueller-Hinton Agar); type: cell-based; details: Staphylococcus aureus, Gp-Ib, penicillin resistant, read-out: Minimum Inhibitory Concentration
From the text: as §2

Mouse urinary recovery = type: in vivo, mice; details: mouse, urine, po, 20 mg/kg; for dose excreted at 24 h: p.o.
S. pyogenes A20065 = experiment: In vitro activity against fastidious bacteria; type: cell-based; details: Streptococcus pyogenes, A20065
From the text: (§3) Table 5 contains comparative data for in vitro antibacterial activity against fastidious bacteria.

N. gonorrheae A20154 = experiment: In vitro activity against fastidious bacteria; type: cell-based
From the text: as §3

H. influenzae A9729 = experiment: In vitro activity against fastidious bacteria; type: cell-based; details: Haemophilus influenzae, A9729
From the text: as §3

S. pyogenes A15040 = experiment: In vitro activity against fastidious bacteria; type: cell-based; details: Streptococcus pyogenes, A15040
From the text: as §3

H. influenzae A22482 = experiment: In vitro activity against fastidious bacteria; type: cell-based; details: Haemophilus influenzae, A22482
From the text: as §3

S. pyogenes A9604 = experiment: In vitro activity against fastidious bacteria; type: cell-based; details: Streptococcus pyogenes, A9604
From the text: as §3

S. pyogenes A20201 = experiment: In vitro activity against fastidious bacteria; type: cell-based; details: Streptococcus pyogenes, A20201
From the text: as §3

N. gonorrheae A20143 = experiment: In vitro activity against fastidious bacteria; type: cell-based
From the text: as §3

N. gonorrheae A15112 = experiment: In vitro activity against fastidious bacteria; type: cell-based
From the text: as §3

H. influenzae A22483 = experiment: In vitro activity against fastidious bacteria; type: cell-based; details: Haemophilus influenzae, A22483
From the text: as §3

N. gonorrheae A20155 = experiment: In vitro activity against fastidious bacteria; type: cell-based
From the text: as §3

S. pneumoniae Type II = experiment: In vitro activity against fastidious bacteria; type: cell-based; details: Streptococcus pneumoniae
From the text: as §3

S. pyogenes Dick = experiment: In vitro activity against fastidious bacteria; type: cell-based; details: Streptococcus pyogenes
From the text: as §3

S. pneumoniae A9585 = experiment: In vitro activity against fastidious bacteria; type: cell-based; details: Streptococcus pneumoniae, A9585
From the text: as §3

H. influenzae A9833 = experiment: In vitro activity against fastidious bacteria; type: cell-based; details: Haemophilus influenzae, A9833
From the text: as §3

N. meningitidis A20048 = experiment: In vitro activity against fastidious bacteria; type: cell-based; details: Neisseria meningitidis, A20048
From the text: as §3

S. pneumoniae A20759 = experiment: In vitro activity against fastidious bacteria; type: cell-based; details: Streptococcus pneumoniae, A20759
From the text: as §3

S. pyogenes s-23 = experiment: In vitro activity against fastidious bacteria; type: cell-based; details: Streptococcus pyogenes, S23
From the text: as §3

H. influenzae A20177 = experiment: In vitro activity against fastidious bacteria; type: cell-based; details: Haemophilus influenzae, A20177
From the text: as §3

H. influenzae A21523 = experiment: In vitro activity against fastidious bacteria; type: cell-based; details: Haemophilus influenzae, A21523
From the text: as §3

N. meningitidis A21495 = experiment: In vitro activity against fastidious bacteria; type: cell-based; details: Neisseria meningitidis, A21495
From the text: as §3

N. meningitidis A21487 = experiment: In vitro activity against fastidious bacteria; type: cell-based; details: Neisseria meningitidis, A21487
From the text: as §3

H. influenzae A20193 = experiment: In vitro activity against fastidious bacteria; type: cell-based; details: Haemophilus influenzae, A20193
From the text: as §3

S. pneumoniae A15069 = experiment: In vitro activity against fastidious bacteria; type: cell-based; details: Streptococcus pneumoniae, A15069
From the text: as §3

N. meningitidis A21497 = experiment: In vitro activity against fastidious bacteria; type: cell-based; details: Neisseria meningitidis, A21497
From the text: as §3

SMILES: N[C@@H](C(=O)N[C@@H]1C(=O)N2C(C(=O)O)=C(Cl)CS[C@H]12)c1ccccc1 [cefaclor]
- PD50 (protective dose) (E. coli Juhl [1]; im): 0.8
- PD50 (protective dose) (E. coli Juhl [1]; po): 1.1
- PD50 (protective dose) (S. aureus Smith [2]): 0.20
- MIC (K. pneumoniae A20346): 6.3 µg/mL (≈ 17.1 µM)
- MIC (E. coli A9660): 0.8 µg/mL (≈ 2.18 µM)
- MIC (E coli RGN-823): 25 µg/mL (≈ 68 µM)
- MIC (K. pneumoniae D11): 0.8 µg/mL (≈ 2.18 µM)
- MIC (E. coli A20341-1): 6.3 µg/mL (≈ 17.1 µM)
- MIC (S. aureus A9602): 3.1 µg/mL (≈ 8.43 µM)
- MIC (E. coli Juhl [3]): 0.8 µg/mL (≈ 2.18 µM)
- MIC (E. coli A15148): 25 µg/mL (≈ 68 µM)
- MIC (S. aureus Russell): 3.1 µg/mL (≈ 8.43 µM)
- MIC (S. aureus A9497): 0.8 µg/mL (≈ 2.18 µM)
- MIC (S. aureus BX-1633-2): 6.3 µg/mL (≈ 17.1 µM)
- MIC (S. aureus Terajima): 0.4 µg/mL (≈ 1.09 µM)
- MIC (S. aureus Smith [4]): 0.8 µg/mL (≈ 2.18 µM)
- MIC (S. aureus No. 193): 6.3 µg/mL (≈ 17.1 µM)
- MIC (S. aureus A9534): 0.8 µg/mL (≈ 2.18 µM)
- MIC (S. aureus A15092): 6.3 µg/mL (≈ 17.1 µM)
- dose excreted at 2 h (Mouse urinary recovery; 0-2 hr): 60%
- dose excreted at 4 h (Mouse urinary recovery; 2-4 hr): 6.7%
- dose excreted at 6 h (Mouse urinary recovery; 4-6 hr): 0.3%
- dose excreted at 24 h (Mouse urinary recovery; 6-24 hr, read-out: Mouse urinary recovery 6-24 hr): 1.5%
- dose excreted at 24 h (Mouse urinary recovery; total, read-out: Mouse urinary recovery Total): 69%
- MIC (S. pyogenes A20065): 0.2 µg/mL (≈ 0.544 µM)
- MIC (N. gonorrheae A20154): 0.8 µg/mL (≈ 2.18 µM)
- MIC (H. influenzae A9729): 0.8 µg/mL (≈ 2.18 µM)
- MIC (S. pyogenes A15040): 0.2 µg/mL (≈ 0.544 µM)
- MIC (H. influenzae A22482): 0.8 µg/mL (≈ 2.18 µM)
- MIC (S. pyogenes A9604): 0.2 µg/mL (≈ 0.544 µM)
- MIC (S. pyogenes A20201): 0.2 µg/mL (≈ 0.544 µM)
- MIC (N. gonorrheae A20143): 0.8 µg/mL (≈ 2.18 µM)
- MIC (N. gonorrheae A15112): 0.8 µg/mL (≈ 2.18 µM)
- MIC (H. influenzae A22483): 0.8 µg/mL (≈ 2.18 µM)
- MIC (N. gonorrheae A20155): 0.8 µg/mL (≈ 2.18 µM)
- MIC (S. pneumoniae Type II): 0.8 µg/mL (≈ 2.18 µM)
- MIC (S. pyogenes Dick): 0.2 µg/mL (≈ 0.544 µM)
- MIC (S. pneumoniae A9585): 0.8 µg/mL (≈ 2.18 µM)
- MIC (H. influenzae A9833): 0.8 µg/mL (≈ 2.18 µM)
- MIC (N. meningitidis A20048): 0.8 µg/mL (≈ 2.18 µM)
- MIC (S. pneumoniae A20759): 3.1 µg/mL (≈ 8.43 µM)
- MIC (S. pyogenes s-23): 0.2 µg/mL (≈ 0.544 µM)
- MIC (H. influenzae A20177): 0.8 µg/mL (≈ 2.18 µM)
- MIC (H. influenzae A21523): 0.8 µg/mL (≈ 2.18 µM)
- MIC (N. meningitidis A21495): 0.8 µg/mL (≈ 2.18 µM)
- MIC (N. meningitidis A21487): 0.8 µg/mL (≈ 2.18 µM)
- MIC (H. influenzae A20193): 0.8 µg/mL (≈ 2.18 µM)
- MIC (S. pneumoniae A15069): 3.1 µg/mL (≈ 8.43 µM)
- MIC (N. meningitidis A21497): 0.8 µg/mL (≈ 2.18 µM)
